Results published in patent EP4692072A1, “PHOTOCHROMIC COMPOUND, PROPARGYL ALCOHOL COMPOUND, CURABLE COMPOSITION, OPTICAL ARTICLE, LENS, AND SPECTACLES” (TOKUYAMA CORPORATION, priority 2023, dated 2024).

Columns and labels:
[1] = Accelerated deterioration (xenon weather meter X25, 120 hours) of binder sheet prepared by binder method; format: physicochemical; conditions: 0.25 mmol per 100 parts by mass resin, A120/A0×100 after 120 hours xenon weather meter
Method: (§1) • [1] Maximum Absorption Wavelength (λmax): The maximum absorption wavelength after color development, measured using a spectrophotometer (instantaneous multichannel photodetector MCPD3000) manufactured by Otsuka Electronics Co., Ltd. was used as an indicator for the color tone during the color development. • [2] 23°C Color Optical Density (A23): A difference between an absorbancy measured after light irradiation at 23°C for 300 seconds {ε(300)} and an absorbancy without light irradiation ε(0) at the maximum absorption wavelength was used as an indicator for the color optical density. […] 23°C color fading half-life [τ1/2 (sec.)]: A time required for the absorbancy of the sample at the maximum absorption wavelength to decrease to 1/2 of {ε(300)-ε(0)} when the light irradiation was terminated after the light irradiation at 23°C for 300 seconds, was used as an indicator for the color fading speed. The shorter this time, the higher the color fading speed. • [4] Residual rate (A120/A0×100): The obtained photochromic plastic lens was subjected to accelerated deterioration using a xenon weather meter X25 manufactured by Suga Test Instruments Co., Ltd. for 120 hours. Subsequently, the color optical density was evaluated before and after the test, then a color optical density before the test (A0) and a color optical density after the test (A120) were measured, and a ratio (A120/A0) was defined as a residual rate. The residual rate was used as an indicator for a color developing durability. The higher the residual rate, the higher the color developing durability. The results of Examples 26, 50, and Comparative Examples 1 to 8 are summarized in Table 1, and the results of Examples 27 to 49 are summarized in Tables 2 and 3.
(§2) A binder sheet was prepared using the following method. The binder sheet consisted of a first optical sheet, a first adhesive layer, a photochromic layer, a second adhesive layer, and a second optical sheet, which are laminated in this order. The first optical sheet and the second optical sheet were made of a polycarbonate sheet with a thickness of 400 µm.
(§3) A 2L four-necked flask equipped with agitation blades, a cooling tube, a thermometer, and a nitrogen gas introducing tube was charged with 315 parts by mass of polycarbonate diol having a number-average molecular weight of 1000, 100 parts by mass of isophorone diisocyanate, and 72 parts by mass of toluene, and the mixture was reacted under nitrogen atmosphere at 100°C for 7 hours to synthesize a urethane prepolymer having an isocyanate group on its terminal. After completion of the urethane prepolymer reaction, the reaction liquid was cooled to approximately 0°C, then dissolved in 205 parts by mass of t-butyl alcohol and 382 parts by mass of diethyl ketone, and then the liquid temperature was maintained at 0°C. Subsequently, into this reaction liquid, a mixture of 21.3 parts by mass of bis-(4-aminocyclohexyl)methane as a chain extender and 20 parts by mass of diethyl ketone was dripped over within 30 minutes, and the mixture was reacted at 0°C for 1 hour. Then, into the mixture, 8.1 parts by mass of 1,2,2,6,6-pentamethyl-4-aminopiperidine was dripped, and the mixture was reacted at 0°C for 1 hour to obtain a diethyl ketone solution of a terminal non-reactive urethaneurea resin.
(§4) To 100 parts by mass of the obtained terminal non-reactive urethaneurea resin solution, the photochromic compound in Example 1 (represented by formula (28) above), 6.3 parts by mass of 4,4'-methylenebis(cyclohexyl isocyanate) isomer mixture (polyisocyanate compound), furthermore 0.4 part by mass of ethylene bis(oxyethylene)bis[3-(5-tert-butyl-4-hydroxy-m-tolyl)propionate] as an antioxidant, and 0.06 part by mass of DOW CORNING TORAY L-7001 as a surfactant were added, and the mixture was stirred and mixed at room temperature to obtain a photochromic layer forming composition. […]

[2] = Photochromic properties of binder sheet (photochromic layer prepared by binder method); format: physicochemical; conditions: 0.25 mmol per 100 parts by mass resin; for A23: 23°C color optical density ε(300)-ε(0); for Maximum absorption wavelength: urethaneurea resin binder sheet, after color development
Method: as §1, §2, §3, §4

Structure (SMILES) | Residual rate [1] [%] | A23 [2] | Maximum absorption wavelength [2] [nm] | other results
COc1ccc(C2(c3ccc(N(C)c4ccccc4)cc3)C=Cc3c4c(c5cc(-c6ccc(N7CCOCC7)cc6)c(OC)cc5c3O2)-c2ccccc2C4(C)C)cc1 (centres unmarked) [Example 1] | 89 | 0.97 - | 502 | Residual rate ([1]; listed as Formula (37)): 90%; A23 ([2]; listed as Formula (37)): 1.06 -; Maximum absorption wavelength ([2]; listed as Formula (37)): 603 nm
COc1ccc(N(C)c2ccc(C3(c4ccc(CCO[Si](C)(C)CC[Si](O[Si](C)(C)C)(O[Si](C)(C)C)O[Si](C)(C)C)cc4)C=Cc4c5c(c6cc(N(C)c7ccccc7)c(OC)cc6c4O3)-c3ccc(C(F)(F)F)cc3C53CCC(C)(C)CC3)cc2)cc1 (centres unmarked) [Example 60] | 88 | 0.84 - | 524 | Residual rate ([1]; listed as Formula (121)): 89%; A23 ([2]; listed as Formula (121)): 0.87 -; Maximum absorption wavelength ([2]; listed as Formula (121)): 582 nm
COCCCCC1(CCCCOC)c2cc(Sc3c(C)cccc3C)ccc2-c2c1c1c(c3cc(OC)ccc23)OC(c2ccc(OC)cc2)(c2ccc(N(C)c3ccc(OC)cc3)cc2)C=C1 (centres unmarked) [Example 11] | 90 | 0.51 - | 479 | Residual rate ([1]; listed as Formula (65)): 89%; A23 ([2]; listed as Formula (65)): 0.97 -; Maximum absorption wavelength ([2]; listed as Formula (65)): 612 nm
CCCCN(c1ccccc1)c1ccc(C2(c3ccc(C)cc3)C=Cc3c4c(c5cc(N6CCOCC6)c(OC)cc5c3O2)-c2ccccc2C4(CC)CC)cc1 (centres unmarked) [Example 10] | 91 | 1.35 - | 516 | A23 ([2]; listed as Formula (62)): 1.12 -; Maximum absorption wavelength ([2]; listed as Formula (62)): 594 nm
COCCC1(CCOC)c2ccccc2-c2c1c1c(c3cc(OC)c(-c4ccc(N(c5ccccc5)c5ccccc5)cc4)cc23)OC(c2ccc(Oc3ccccc3)cc2)(c2ccc(N(C)c3ccccc3)cc2)C=C1 (centres unmarked) [Example 23] | 89 | 1.02 - | 506 | A23 ([2]; listed as Formula (85)): 1.06 -; Maximum absorption wavelength ([2]; listed as Formula (85)): 609 nm
CCCC1(CCC)c2ccccc2-c2c1c1c(c3cc(OC)c(-c4ccc(OC)cc4OC)cc23)OC(c2ccc(C)cc2)(c2ccc(N(C)c3ccccc3)cc2)C=C1 (centres unmarked) [Example 19] | 91 | 0.88 - | 492 | A23 ([2]; listed as Formula (80)): 1.14 -; Maximum absorption wavelength ([2]; listed as Formula (80)): 604 nm

Continued, in another order:

Residual rate [1] [%] | A23 [2] | Maximum absorption wavelength [2] [nm] | Structure (SMILES) | other results
91 | 0.85 - | 493 | CCCC1(CCC)c2cc(OC(F)(F)F)ccc2-c2c1c1c(c3cc(OC)c(Sc4c(C)cccc4C)cc23)OC(c2ccc(N(C)c3ccccc3)cc2)(c2ccc(OC)c(OC)c2)C=C1 (centres unmarked) [Example 57] | Residual rate ([1]; listed as Formula (110)): 90%; A23 ([2]; listed as Formula (110)): 0.87 -; Maximum absorption wavelength ([2]; listed as Formula (110)): 618 nm
87 | 0.88 - | 505 | CCN(c1ccc(OC)cc1)c1ccc(C2(c3ccc(OC)cc3)C=Cc3c4c(c5cc(-c6ccc(N7CCOCC7)cc6)c(OC)cc5c3O2)-c2ccccc2C4(C)C)cc1 (centres unmarked) [Example 25] | A23 ([2]; listed as Formula (88)): 0.97 -; Maximum absorption wavelength ([2]; listed as Formula (88)): 606 nm
87 | 0.75 - | 502 | CCCCOCCC1(CCOCCCC)c2ccccc2-c2c1c1c(c3cc(OC)c(NC(=O)c4ccccc4)cc23)OC(c2ccc(N(C)c3ccccc3)cc2)(c2ccc(OC)c(F)c2)C=C1 (centres unmarked) [Example 53] | Residual rate ([1]; listed as Formula (95)): 89%; A23 ([2]; listed as Formula (95)): 0.96 -; Maximum absorption wavelength ([2]; listed as Formula (95)): 607 nm
